# Assay results published in ChEMBL document CHEMBL5126599, “Development of S-aryl dithiocarbamate derived novel antiproliferative compound exhibiting tubulin bundling” (Bioorg Med Chem, 2022).
# Active and inactive are the calls of the source. No cut-off for these calls is given here.
# Legend:
# [1] = system: A549; assay: Antiproliferative activity against human A549 cells assessed as reduction in cell viability incubated for 72 hrs by MTT assay; type: functional, cell-based; conditions: A549, 72 h
# [2] = molecular target: T1, Tubulin (Homo sapiens) (UniProt P68371+Q9H4B7+P0DPH7+P68366+Q13509+Q71U36+P04350+Q3ZCM7+P07437+P68363+Q9BQE3+Q6PEY2+Q13885+Q9BVA1+Q9BUF5); assay: Induction of microtubule stabilization in human HeLa cells assessed as microtubule bundling at 0.5 uM for 24 hrs by DAPI staining based fluorescence microscopy; type: cell-based
# [3] = molecular target: T1, Tubulin (Homo sapiens); assay: Induction of microtubule stabilization in human HeLa cells assessed as increase in alpha-tubulin level in cell pellet at 0.5 uM for 48 hrs by Western blot analysis; type: cell-based; conditions: DDE = dose-dependent effect
# [4] = molecular target: T1, Tubulin (Homo sapiens); assay: Induction of microtubule stabilization in human HeLa cells assessed as increase in alpha-tubulin level in cell pellet at 0.5 to 1 uM for 48 hrs by Western blot analysis; type: cell-based; conditions: dose 0.5-1 µM, DDE = dose-dependent effect
# [5] = system: HeLa; assay: Induction of apoptosis in human HeLa cells assessed as increase in p21 protein expression at 0.432 to 0.864 uM for 72 hrs by Western blot analysis; type: functional, cell-based; conditions: dose 0.432-0.864 µM
# [6] = system: HeLa; assay: Induction of cell cycle arrest in human HeLa cells assessed as increase in cyclin B1 expression at 0.432 to 0.864 uM for 72 hrs by Western blot analysis; type: functional, cell-based; conditions: dose 0.432-0.864 µM, DDE = dose-dependent effect
# [7] = system: HeLa; assay: Antiproliferative activity against human HeLa cells assessed as reduction in number of colonies at 0.432 to 0.864 uM for 72 hrs with media renew every 2 days and measured upto 2 weeks by crystal violet staining based microscopic analysis; type: functional, cell-based; conditions: dose 0.432-0.864 µM, DDE = dose-dependent effect
# [8] = system: MDA-MB-231; assay: Antiproliferative activity against human MDA-MB-231 cells assessed as reduction in cell viability incubated for 72 hrs by MTT assay; type: functional, cell-based; conditions: MDA-MB-231, 72 h
# [9] = system: HeLa; assay: Induction of apoptosis in human HeLa cells assessed as fold change as increase in apoptotic cells at 0.432 to 0.864 uM for 72 hrs by PI staining based flow cytometry relative to control; type: functional; conditions: dose 0.432-0.864 µM
# [10] = system: HeLa; assay: Antiproliferative activity against human HeLa cells assessed as reduction in cell viability incubated for 72 hrs by MTT assay; type: functional, cell-based
# [11] = system: HeLa; assay: Induction of apoptosis in human HeLa cells assessed as increase in p53 protein expression at 0.432 to 0.864 uM for 72 hrs by Western blot analysis; type: functional, cell-based; conditions: dose 0.432-0.864 µM, DDE = dose-dependent effect
# [12] = system: MCF7; assay: Antiproliferative activity against human MCF7 cells assessed as reduction in cell viability incubated for 72 hrs by MTT assay; type: functional, cell-based; conditions: MCF7, 72 h
# [13] = system: HeLa; assay: Induction of apoptosis in human HeLa cells assessed as fold change as increase in necrotic cells at 0.432 to 0.864 uM for 72 hrs by Annexin-V/PI staining based fluorescence microscopy relative to control; type: functional; conditions: dose 0.432-0.864 µM
# [14] = system: HeLa; assay: Induction of cell cycle arrest in human HeLa cells assessed as fold change as increase in accumulation at G2/M phase at 0.432 to 0.864 uM for 72 hrs by PI staining based flow cytometry relative to control; type: functional; conditions: dose 0.432-0.864 µM
# [15] = molecular target: T1, Tubulin (Homo sapiens); assay: Induction of microtubule stabilization in human HeLa cells assessed as microtubule bundling at 0.5 to 1 uM for 24 hrs by DAPI staining based fluorescence microscopy; type: cell-based; conditions: dose 0.5-1 µM, DDE = dose-dependent effect
# [16] = system: HeLa; assay: Induction of cell cycle arrest in human HeLa cells assessed as accumulation at G2/M phase at 0.432 to 0.864 uM for 72 hrs by DAPI staining based fluorescence microscopy; type: functional; conditions: dose 0.432-0.864 µM, DDE = dose-dependent effect
SMILES,IC50 [1],also measured
CC(C)(C)OC(=O)N1CCN(C(=S)Sc2ccccc2Cl)CC1,1560 nM,–
Cc1ccc(C)c(SC(=S)N2CCN(C(=O)OC(C)(C)C)CC2)c1,539 nM,–
Cc1ccccc1SC(=S)N1CCN(C(=O)OC(C)(C)C)CC1,2270 nM,–
S=C(Sc1ccccc1)N1CCCCC1,7930 nM,–
Cc1cc(C)c(SC(=S)N2CCN(C(=O)OC(C)(C)C)CC2)c(C)c1,1460 nM,–
CC(=O)O[C@H]1C(=O)[C@@]2(C)[C@H]([C@H](OC(=O)c3ccccc3)[C@]3(O)C[C@H](OC(=O)[C@H](O)[C@@H](NC(=O)c4ccccc4)c4ccccc4)C(C)=C1C3(C)C)[C@]1(OC(C)=O)CO[C@@H]1C[C@@H]2O,–,Activity [2]: Active; Activity [3]: Dde
S=C(Sc1ccccc1)N1CCOCC1,2520 nM,–
CC(C)(C)OC(=O)N1CCN(C(=S)Sc2ccccc2)CC1,447 nM,Activity [4]: Dde; Activity [5]: Active; Activity [6]: Dde; Activity [7]: Dde; IC50 [8]: 615 nM; fold change (FC) [9]: 4; IC50 [10]: 432 nM; Activity [11]: Dde; IC50 [12]: 1750 nM; fold change (FC) [13]: 3; fold change (FC) [14]: 4; Activity [15]: Dde; Activity [16]: Dde
CC(C)(C)c1ccc(SC(=S)N2CCCCC2)cc1,9130 nM,–
CC(C)(C)OC(=O)N1CCN(C(=S)Sc2ccc(C(C)(C)C)cc2)CC1,769 nM,–
Cc1cccc(SC(=S)N2CCN(C(=O)OC(C)(C)C)CC2)c1,914 nM,–
CCCCN(CCCC)C(=S)Sc1ccccc1,9760 nM,–

# Now from value to molecule, other results behind:
IC50 [1],SMILES,also measured
1070 nM,CC(C)(C)OC(=O)N1CCN(C(=S)Sc2ccc(Cl)cc2)CC1,–
634 nM,CC(C)(C)OC(=O)N1CCN(C(=S)Sc2cccc(Cl)c2)CC1,–
712 nM,COc1ccc(SC(=S)N2CCN(C(=O)OC(C)(C)C)CC2)cc1,–
1560 nM,CC(C)(C)OC(=O)N1CCN(C(=S)Sc2ccc(F)cc2)CC1,–
2100 nM,Cc1ccc(SC(=S)N2CCN(C(=O)OC(C)(C)C)CC2)cc1,–
1820 nM,CC(C)(C)OC(=O)N1CCN(C(=S)Sc2ccc(Br)cc2)CC1,–
